Assay results published in ChEMBL document CHEMBL4261581, “Synthesis and evaluation of 4-cycloheptylphenols as selective Estrogen receptor-β agonists (SERBAs)” (Eur J Med Chem, 2018).
Active and inactive are the calls of the source. The calls are words filed in the database; no cut-off is given here.

Tests used:
[1] = molecular target: Peroxisome proliferator-activated receptor delta (Homo sapiens, UniProt Q03181); assay: (§1) Agonist activity at GAL4 DNA-binding domain fused PPARdelta receptor (unknown origin) ligand binding domain expressed in UAS-bla HEK 293T cells assessed as beta-lactamase transcriptional activation by FRET-based GeneBLAzer assay; assay type: cell-based
Peroxisome proliferator-activated receptor delta, sequence (Q03181 whole entry, the tested form may be a part): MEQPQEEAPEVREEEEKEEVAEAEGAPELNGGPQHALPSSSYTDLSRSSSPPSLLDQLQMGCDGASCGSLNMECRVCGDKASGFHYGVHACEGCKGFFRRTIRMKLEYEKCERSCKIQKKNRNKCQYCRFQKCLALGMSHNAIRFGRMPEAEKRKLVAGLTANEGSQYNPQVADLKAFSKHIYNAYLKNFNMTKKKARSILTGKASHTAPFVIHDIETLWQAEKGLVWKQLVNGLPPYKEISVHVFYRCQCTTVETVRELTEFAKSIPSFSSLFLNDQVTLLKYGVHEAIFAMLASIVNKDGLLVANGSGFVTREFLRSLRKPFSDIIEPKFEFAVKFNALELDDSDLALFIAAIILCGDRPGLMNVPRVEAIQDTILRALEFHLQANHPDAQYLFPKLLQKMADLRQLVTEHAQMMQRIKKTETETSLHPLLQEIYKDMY

[2] = molecular target: T1, Estrogen receptor (Homo sapiens, UniProt P03372); assay: Inhibition of fluorescein-tagged estrogen binding to GST-tagged ERalpha (unknown origin) ligand binding domain after 1 hr by LanthaScreen TR-FRET assay
T1 sequence (P03372 whole entry): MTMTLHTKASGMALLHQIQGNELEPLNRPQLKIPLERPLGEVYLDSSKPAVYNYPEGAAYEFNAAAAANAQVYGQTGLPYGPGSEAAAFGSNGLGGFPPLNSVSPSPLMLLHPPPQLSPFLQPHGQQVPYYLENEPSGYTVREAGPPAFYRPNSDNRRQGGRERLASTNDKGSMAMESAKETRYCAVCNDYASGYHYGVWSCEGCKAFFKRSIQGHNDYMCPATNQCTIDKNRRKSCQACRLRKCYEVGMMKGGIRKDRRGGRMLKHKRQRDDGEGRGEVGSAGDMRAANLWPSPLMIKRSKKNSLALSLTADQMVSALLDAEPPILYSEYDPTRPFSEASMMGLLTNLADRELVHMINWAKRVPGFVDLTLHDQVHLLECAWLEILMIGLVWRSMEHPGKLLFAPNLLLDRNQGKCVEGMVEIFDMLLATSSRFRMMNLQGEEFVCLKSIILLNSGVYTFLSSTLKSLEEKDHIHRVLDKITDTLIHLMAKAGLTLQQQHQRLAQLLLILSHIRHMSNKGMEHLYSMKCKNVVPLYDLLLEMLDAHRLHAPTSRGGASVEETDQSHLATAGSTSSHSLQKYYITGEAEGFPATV

[3] = molecular target: T2, Estrogen receptor beta (Homo sapiens, UniProt Q92731); assay: Inhibition of fluorescein-tagged estrogen binding to GST-tagged ERbeta (unknown origin) ligand binding domain after 1 hr by LanthaScreen TR-FRET assay
T2 sequence (Q92731 whole entry, the tested form may be a part): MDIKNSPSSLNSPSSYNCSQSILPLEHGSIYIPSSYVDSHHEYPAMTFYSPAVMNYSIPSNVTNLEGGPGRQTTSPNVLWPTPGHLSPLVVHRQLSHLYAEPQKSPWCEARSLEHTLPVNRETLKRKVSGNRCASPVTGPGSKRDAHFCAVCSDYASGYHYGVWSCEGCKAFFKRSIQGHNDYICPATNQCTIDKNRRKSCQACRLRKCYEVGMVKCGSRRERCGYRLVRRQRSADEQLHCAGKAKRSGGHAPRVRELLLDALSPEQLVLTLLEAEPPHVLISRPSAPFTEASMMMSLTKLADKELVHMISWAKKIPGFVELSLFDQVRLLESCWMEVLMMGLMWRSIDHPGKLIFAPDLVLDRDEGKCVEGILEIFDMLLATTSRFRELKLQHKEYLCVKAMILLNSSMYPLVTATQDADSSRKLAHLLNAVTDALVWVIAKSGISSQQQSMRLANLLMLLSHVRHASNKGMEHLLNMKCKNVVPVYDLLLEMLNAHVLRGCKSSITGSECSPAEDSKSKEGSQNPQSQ

[4] = molecular target: T1, Estrogen receptor; assay: Antagonist activity at full length ERalpha (unknown origin) assessed as reduction in E2 induced response after 24 hrs by cell based ERE-driven luciferase reporter gene assay
[5] = molecular target: T2, Estrogen receptor beta
Description: Antagonist activity at full length ERbeta (unknown origin) assessed as reduction in E2 induced response after 24 hrs by cell based ERE-driven luciferase reporter gene assay

[6] = molecular target: T2, Estrogen receptor beta; assay: Agonist activity at full length ERbeta (unknown origin) after 24 hrs by cell based ERE-driven luciferase reporter gene assay
[7] = molecular target: T1, Estrogen receptor; assay: Agonist activity at full length ERalpha (unknown origin) after 24 hrs by ERE-driven luciferase reporter gene assay
[8] = molecular target: T1, Estrogen receptor; assay: Agonist activity at ERalpha (unknown origin) ligand binding domain assessed as fluorescein-labeled coactivator peptide recruitment by LanthaScreen TR-FRET assay
[9] = molecular target: Peroxisome proliferator-activated receptor delta (Homo sapiens) (UniProt Q03181); assay: as §1; assay type: cell-based
Peroxisome proliferator-activated receptor delta (Homo sapiens), sequence (Q03181 whole entry, the tested form may be a part): as the sequence (Q03181 whole entry, the tested form may be a part) above

[10] = molecular target: Progesterone receptor (Homo sapiens) (UniProt P06401); assay: (§2) Agonist activity at GAL4 DNA-binding domain fused PR (unknown origin) ligand binding domain expressed in UAS-bla HEK 293T cells assessed as beta-lactamase transcriptional activation by FRET-based GeneBLAzer assay; assay type: cell-based
[11] = organism: Homo sapiens; assay: Selectivity index, ratio of EC50 for ERalpha (unknown origin) LBD by fluorescein-labeled coactivator peptide recruitment based LanthaScreen TR-FRET assay to EC50 for ERbeta (unknown origin) LBD by fluorescein-labeled coactivator peptide recruitment based LanthaScreen TR-FRET assay
[12] = molecular target: T2, Estrogen receptor beta; assay: Agonist activity at GAL4 DNA-binding domain fused ERbeta (unknown origin) ligand binding domain expressed in UAS-bla GripTite 293 cells assessed as beta-lactamase transcriptional activation by FRET-based GeneBLAzer assay; assay type: cell-based
[13] = molecular target: Vitamin D3 receptor (Homo sapiens) (UniProt P11473); assay: Agonist activity at GAL4 DNA-binding domain fused VDR (unknown origin) ligand binding domain expressed in UAS-bla HEK 293T cells assessed as beta-lactamase transcriptional activation by FRET-based GeneBLAzer assay; assay type: cell-based
[14] = molecular target: Estrogen receptor (Homo sapiens) (UniProt P03372); assay: Agonist activity at GAL4 DNA-binding domain fused ERalpha (unknown origin) ligand binding domain expressed in UAS-bla GripTite 293 cells assessed as beta-lactamase transcriptional activation by FRET-based GeneBLAzer assay; assay type: cell-based
[15] = molecular target: T2, Estrogen receptor beta; assay: Agonist activity at ERbeta (unknown origin) ligand binding domain assessed as fluorescein-labeled coactivator peptide recruitment by LanthaScreen TR-FRET assay
[16] = molecular target: Mineralocorticoid receptor (Homo sapiens) (UniProt P08235); assay: Agonist activity at GAL4 DNA-binding domain fused MR (unknown origin) ligand binding domain expressed in UAS-bla […] assessed as beta-lactamase transcriptional activation by FRET-based GeneBLAzer assay; assay type: cell-based
Mineralocorticoid receptor (Homo sapiens), sequence (P08235 whole entry, the tested form may be a part): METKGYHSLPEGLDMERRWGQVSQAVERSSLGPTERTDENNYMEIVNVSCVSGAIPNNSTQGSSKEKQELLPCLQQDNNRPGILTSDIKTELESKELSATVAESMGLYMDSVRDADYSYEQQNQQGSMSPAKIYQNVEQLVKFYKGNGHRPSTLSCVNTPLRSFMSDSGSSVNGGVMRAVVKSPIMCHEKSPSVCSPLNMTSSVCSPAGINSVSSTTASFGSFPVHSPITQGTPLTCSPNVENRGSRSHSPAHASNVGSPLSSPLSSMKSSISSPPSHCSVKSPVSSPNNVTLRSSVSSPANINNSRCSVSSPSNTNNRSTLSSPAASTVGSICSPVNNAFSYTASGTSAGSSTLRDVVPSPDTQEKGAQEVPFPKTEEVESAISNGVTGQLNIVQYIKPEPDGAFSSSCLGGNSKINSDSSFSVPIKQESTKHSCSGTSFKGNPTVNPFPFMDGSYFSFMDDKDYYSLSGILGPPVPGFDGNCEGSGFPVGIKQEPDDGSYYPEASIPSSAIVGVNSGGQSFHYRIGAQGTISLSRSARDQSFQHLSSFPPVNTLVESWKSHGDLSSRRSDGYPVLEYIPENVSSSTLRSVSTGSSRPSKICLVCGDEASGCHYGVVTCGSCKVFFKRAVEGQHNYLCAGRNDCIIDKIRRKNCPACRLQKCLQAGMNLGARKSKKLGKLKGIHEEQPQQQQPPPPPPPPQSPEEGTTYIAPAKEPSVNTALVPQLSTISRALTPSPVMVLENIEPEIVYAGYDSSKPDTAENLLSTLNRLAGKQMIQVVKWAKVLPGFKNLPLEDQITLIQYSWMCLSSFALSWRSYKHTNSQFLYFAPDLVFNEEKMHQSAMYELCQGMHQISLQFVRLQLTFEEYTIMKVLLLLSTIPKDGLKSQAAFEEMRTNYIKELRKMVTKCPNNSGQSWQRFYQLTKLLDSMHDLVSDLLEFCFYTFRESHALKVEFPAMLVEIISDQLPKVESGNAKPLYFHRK

[17] = organism: Homo sapiens; assay: Selectivity index, ratio of IC50 for full-length human ERalpha to IC50 for full length human ERbeta
[18] = organism: Homo sapiens; assay: Selectivity ratio for ERbeta (unknown origin) over ERalpha (unknown origin)
[19] = test system: MCF7; assay: Antiproliferative activity against human MCF7 cells at 0.01 to 10 uM after 24 hrs by MTT assay; assay type: functional, cell-based
[20] = molecular target: Cytochrome P450 2C9 (Homo sapiens, UniProt P11712); assay: Inhibition of CYP2C9 (unknown origin) using luciferin-H as substrate preincubated for 10 mins followed by NADPH regeneration system addition and measured after 30 mins by Promega P450-GloScreening assay; assay type: ADME
[21] = molecular target: Histamine H2 receptor (Homo sapiens) (UniProt P25021); assay: Displacement of [125I]-iodoaminopotentidine from human histamine H2 receptor expressed in HEK Flp-In cells at 10 uM after 90 mins by microbeta scintillation counting method; assay type: cell-based
Histamine H2 receptor (Homo sapiens), sequence (P25021 whole entry): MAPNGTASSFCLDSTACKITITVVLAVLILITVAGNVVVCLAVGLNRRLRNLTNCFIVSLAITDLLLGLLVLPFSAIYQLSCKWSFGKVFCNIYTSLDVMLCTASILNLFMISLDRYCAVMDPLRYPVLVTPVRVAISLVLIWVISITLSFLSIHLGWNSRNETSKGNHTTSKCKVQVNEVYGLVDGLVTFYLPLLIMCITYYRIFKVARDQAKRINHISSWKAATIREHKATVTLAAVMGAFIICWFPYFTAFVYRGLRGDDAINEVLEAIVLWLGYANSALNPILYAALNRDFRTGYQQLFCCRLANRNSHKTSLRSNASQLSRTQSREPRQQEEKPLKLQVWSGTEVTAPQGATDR

[22] = molecular target: 5-hydroxytryptamine receptor 7 (Homo sapiens) (UniProt P34969); assay: Displacement of [3H]-LSD from human 5-HT7A receptor expressed in stable HEK cells at 10 uM after 90 mins by microbeta scintillation counting method; assay type: cell-based
[23] = molecular target: Beta-1 adrenergic receptor (Homo sapiens) (UniProt P08588); assay: Displacement of [3H]-Pindolol from human adrenergic beta1 receptor expressed in Flp-In CHO cells at 10 uM after 90 mins by microbeta scintillation counting method; assay type: cell-based
[24] = molecular target: Cytochrome P450 3A4 (Homo sapiens, UniProt P08684); assay: Inhibition of CYP3A4 (unknown origin) using luciferin-IPA as substrate preincubated for 10 mins followed by NADPH regeneration system addition and measured after 10 to 30 mins by Promega P450-GloScreening assay; assay type: ADME
Cytochrome P450 3A4, sequence (P08684 whole entry): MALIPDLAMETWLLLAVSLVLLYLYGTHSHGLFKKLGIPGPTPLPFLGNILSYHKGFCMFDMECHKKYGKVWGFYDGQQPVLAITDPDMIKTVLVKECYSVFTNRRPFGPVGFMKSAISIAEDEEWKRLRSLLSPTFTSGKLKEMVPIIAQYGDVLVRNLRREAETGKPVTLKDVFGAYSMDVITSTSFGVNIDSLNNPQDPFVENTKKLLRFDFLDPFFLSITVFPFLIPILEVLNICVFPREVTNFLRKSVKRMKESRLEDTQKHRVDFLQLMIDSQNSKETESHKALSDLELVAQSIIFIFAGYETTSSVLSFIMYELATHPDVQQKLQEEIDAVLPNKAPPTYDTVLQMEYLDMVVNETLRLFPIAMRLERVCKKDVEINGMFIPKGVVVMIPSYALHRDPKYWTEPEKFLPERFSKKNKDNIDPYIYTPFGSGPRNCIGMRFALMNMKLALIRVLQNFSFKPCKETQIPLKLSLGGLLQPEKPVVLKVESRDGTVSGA

[25] = molecular target: 5-hydroxytryptamine receptor 1A (Homo sapiens) (UniProt P08908); assay: Displacement of [3H]-WAY100635 from human 5HT1A receptor expressed in stable CHO cells at 10 uM after 90 mins by microbeta scintillation counting method; assay type: cell-based
5-hydroxytryptamine receptor 1A (Homo sapiens), sequence (P08908 whole entry): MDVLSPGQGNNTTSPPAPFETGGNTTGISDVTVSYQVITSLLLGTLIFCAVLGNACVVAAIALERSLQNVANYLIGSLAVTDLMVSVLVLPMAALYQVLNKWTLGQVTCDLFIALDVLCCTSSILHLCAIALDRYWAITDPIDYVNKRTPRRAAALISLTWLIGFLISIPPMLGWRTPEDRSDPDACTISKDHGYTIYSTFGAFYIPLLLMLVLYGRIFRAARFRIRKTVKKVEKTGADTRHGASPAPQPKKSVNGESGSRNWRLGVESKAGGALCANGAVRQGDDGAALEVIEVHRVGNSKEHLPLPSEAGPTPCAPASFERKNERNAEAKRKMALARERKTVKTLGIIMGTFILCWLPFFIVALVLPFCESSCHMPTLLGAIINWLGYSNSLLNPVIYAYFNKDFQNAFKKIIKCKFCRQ

[26] = molecular target: Beta-3 adrenergic receptor (Homo sapiens) (UniProt P13945); assay: Displacement of [3H]-CGP12177 from human adrenergic beta3 receptor expressed in Flp-In HEK cells at 10 uM after 90 mins by microbeta scintillation counting method; assay type: cell-based
[27] = molecular target: 5-hydroxytryptamine receptor 1D (Homo sapiens) (UniProt P28221); assay: Displacement of [3H]-5-CT from human 5-HT1D receptor expressed in HEKT cells at 10 uM after 90 mins by microbeta scintillation counting method; assay type: cell-based
[28] = molecular target: Cytochrome P450 2D6 (Homo sapiens, UniProt P10635); assay: Inhibition of CYP2D6 (unknown origin) using luciferin-ME EGE as substrate preincubated for 10 mins followed by NADPH regeneration system addition and measured after 30 to 45 mins by Promega P450-GloScreening assay; assay type: ADME
Cytochrome P450 2D6, sequence (P10635 whole entry): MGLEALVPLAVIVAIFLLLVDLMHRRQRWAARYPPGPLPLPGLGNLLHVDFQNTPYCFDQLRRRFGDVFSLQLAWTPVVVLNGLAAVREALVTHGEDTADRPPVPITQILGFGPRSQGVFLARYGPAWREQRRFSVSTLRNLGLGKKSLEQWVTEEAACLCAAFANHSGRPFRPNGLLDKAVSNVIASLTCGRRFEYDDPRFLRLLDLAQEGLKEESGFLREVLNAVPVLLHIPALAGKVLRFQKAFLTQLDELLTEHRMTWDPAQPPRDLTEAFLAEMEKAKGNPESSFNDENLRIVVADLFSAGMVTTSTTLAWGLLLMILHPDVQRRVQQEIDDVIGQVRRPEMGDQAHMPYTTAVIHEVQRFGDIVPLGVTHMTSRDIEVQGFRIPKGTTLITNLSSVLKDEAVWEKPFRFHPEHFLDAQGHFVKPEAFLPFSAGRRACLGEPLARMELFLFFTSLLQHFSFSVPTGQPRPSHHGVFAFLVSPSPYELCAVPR

[29] = molecular target: Alpha-1A adrenergic receptor (Homo sapiens) (UniProt P35348); assay: Displacement of [3H]-Prazosin from human adrenergic alpha1A receptor at 10 uM after 90 mins by microbeta scintillation counting method
[30] = molecular target: Histamine H2 receptor (Homo sapiens) (UniProt P25021); assay: Displacement of [3H]-histamine from human histamine H2 receptor expressed in HEKT cells at 10 uM after 90 mins by microbeta scintillation counting method; assay type: cell-based
[31] = molecular target: Sigma non-opioid intracellular receptor 1 (Homo sapiens) (UniProt Q99720); assay: Displacement of [3H]-Pentazocine from human sigma1 receptor expressed in HEKT cells at 10 uM after 90 mins by microbeta scintillation counting method; assay type: cell-based
[32] = molecular target: 5-hydroxytryptamine receptor 2B (Homo sapiens) (UniProt P41595); assay: Displacement of [3H]-LSD from human 5-HT2B receptor expressed in stable HEK cells at 10 uM after 90 mins by microbeta scintillation counting method; assay type: cell-based
5-hydroxytryptamine receptor 2B (Homo sapiens), sequence (P41595 whole entry): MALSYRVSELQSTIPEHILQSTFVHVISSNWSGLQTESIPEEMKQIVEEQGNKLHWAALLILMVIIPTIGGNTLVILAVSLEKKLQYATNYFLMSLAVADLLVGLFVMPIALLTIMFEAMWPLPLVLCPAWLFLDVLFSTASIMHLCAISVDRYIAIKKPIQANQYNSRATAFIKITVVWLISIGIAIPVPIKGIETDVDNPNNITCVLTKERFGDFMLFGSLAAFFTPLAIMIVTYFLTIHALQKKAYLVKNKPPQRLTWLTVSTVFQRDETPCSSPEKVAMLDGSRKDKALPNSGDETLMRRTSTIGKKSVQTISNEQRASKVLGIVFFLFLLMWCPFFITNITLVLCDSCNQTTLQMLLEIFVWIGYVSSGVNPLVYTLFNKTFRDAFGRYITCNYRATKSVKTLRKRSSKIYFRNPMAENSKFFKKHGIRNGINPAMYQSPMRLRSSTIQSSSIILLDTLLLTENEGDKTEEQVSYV

[33] = molecular target: Alpha-1B adrenergic receptor (Homo sapiens) (UniProt P35368); assay: Displacement of [3H]-Prazosin from human adrenergic alpha1B receptor expressed in HEKT cells at 10 uM after 90 mins by microbeta scintillation counting method; assay type: cell-based
[34] = molecular target: 5-hydroxytryptamine receptor 6 (Homo sapiens) (UniProt P50406); assay: Displacement of [3H]-LSD from human 5-HT6 receptor expressed in stable HEK cells at 10 uM after 90 mins by microbeta scintillation counting method; assay type: cell-based
[35] = molecular target: Sigma intracellular receptor 2 (Homo sapiens) (UniProt Q5BJF2); assay: Displacement of [3H]-ditolylguanidine from human sigma2 receptor expressed in HEKT cells at 10 uM after 90 mins by microbeta scintillation counting method; assay type: cell-based
Sigma intracellular receptor 2 (Homo sapiens), sequence (Q5BJF2 whole entry): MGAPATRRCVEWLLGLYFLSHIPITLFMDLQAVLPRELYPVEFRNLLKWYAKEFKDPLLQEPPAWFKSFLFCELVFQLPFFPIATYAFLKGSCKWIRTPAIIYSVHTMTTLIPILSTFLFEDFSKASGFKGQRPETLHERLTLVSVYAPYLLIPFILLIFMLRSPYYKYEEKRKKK

[36] = molecular target: Cytochrome P450 1A2 (Homo sapiens, UniProt P05177); assay: Inhibition of CYP1A2 (unknown origin) using luciferin-ME as substrate preincubated for 10 mins followed by NADPH regeneration system addition and measured after 10 to 30 mins by Promega P450-GloScreening assay; assay type: ADME
Cytochrome P450 1A2, sequence (P05177 whole entry): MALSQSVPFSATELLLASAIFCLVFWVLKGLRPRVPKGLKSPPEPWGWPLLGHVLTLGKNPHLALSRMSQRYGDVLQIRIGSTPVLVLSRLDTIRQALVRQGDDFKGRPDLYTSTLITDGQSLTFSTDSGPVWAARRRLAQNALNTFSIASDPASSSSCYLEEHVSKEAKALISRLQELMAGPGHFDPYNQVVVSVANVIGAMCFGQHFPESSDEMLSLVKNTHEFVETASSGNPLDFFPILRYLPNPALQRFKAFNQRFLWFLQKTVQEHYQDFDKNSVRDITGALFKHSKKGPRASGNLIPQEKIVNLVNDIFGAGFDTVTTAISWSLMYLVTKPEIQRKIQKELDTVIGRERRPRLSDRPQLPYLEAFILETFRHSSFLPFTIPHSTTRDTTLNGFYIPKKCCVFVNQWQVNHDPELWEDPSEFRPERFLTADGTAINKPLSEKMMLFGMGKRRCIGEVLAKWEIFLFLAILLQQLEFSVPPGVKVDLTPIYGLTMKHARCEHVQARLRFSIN

[37] = molecular target: hERG (KCNH2) (Homo sapiens, UniProt Q12809); assay: Displacement of [3H]-dofetilide from human ERG expressed in HEK cells at 10 uM after 90 mins by microbeta scintillation counting method; assay type: cell-based; conditions: HEK cells expressing human ERG, probe [3H]-dofetilide
[38] = Solubility of the compound in buffer containing 20 mM potassium phosphate of pH 7.5 and 1% DMSO up to 250 uM by nephelometry; assay type: physicochemical
[39] = molecular target: Progesterone receptor (Homo sapiens, UniProt P06401); assay: as §2; assay type: cell-based

SMILES | EC50 [2] [nM] | EC50 [3] [nM] | EC50 [4] [nM] | EC50 [5] [nM] | EC50 [6] [nM] | EC50 [7] [nM] | other results
CCCc1c(OCCCOc2ccc(OCC(=O)O)cc2)ccc(C(C)=O)c1O |  |  |  |  |  |  | IC50 [1]: 12.6 nM
OC[C@H]1CCC[C@@H](c2ccc(O)cc2)CC1 | 221 | 99 | > 10000 | > 10000 | 121 | > 10000 | 
OC[C@@H]1CCC[C@H](c2ccc(O)cc2)CC1 | 199 | 66 | > 11600 | > 11600 | 51 | > 11600 | EC50 [8]: 2660 nM; Activity [9]: inactive; Activity [10]: inactive; Ratio EC50 [11]: 4.7; Activity [12]: Active; Activity [13]: inactive; Activity [14]: Active; EC50 [15]: 566 nM; Activity [16]: inactive
C=Cc1cc(O)cc2nc(-c3ccc(O)c(F)c3)oc12 |  |  |  |  |  |  | Ratio IC50 [17]: 255
C=Cc1cc(O)cc2nc(-c3ccc(O)cc3)oc12 |  |  |  |  |  |  | Selectivity ratio [18]: 127
N#Cc1cc(O)cc2c3c(oc12)-c1ccc(O)cc1CC3 |  |  |  |  |  |  | Selectivity ratio [18]: 157
Oc1ccc(C2CCCC(O)CC2)cc1 (racemic) |  | 42 | > 10000 | > 10000 | 362 | > 10000 | 
Oc1ccc(C23CCCC(CC2)CO3)cc1 (racemic) |  | 509 |  |  |  |  | 
OCCC1CCCC(c2ccc(O)cc2)CC1 (racemic) |  | 75 | > 10000 | > 10000 | 139 | > 10000 | 
O/N=C1\CCCC(c2ccc(O)cc2)CC1 (racemic) |  | 600 | > 10000 | > 10000 | > 800 | > 10000 | 
O=C1CCCC(c2ccc(O)cc2)CC1 (racemic) |  | 435 |  |  |  |  | 
OCC1CCCC(c2ccc(O)cc2)CC1 (racemic) | 99 | 53 | > 10000 | > 100000 | 33 | 10500 | Activity [19]: Active; IC50 [20]: 2700 nM; inhibition [21]: 2.7%; inhibition [22]: -8.5%; inhibition [23]: -4.8%; IC50 [24]: 33000 nM; inhibition [25]: 14.6%; inhibition [26]: 16%; inhibition [27]: 25.3%; IC50 [28]: 73000 nM; inhibition [29]: -3.7%; inhibition [30]: -0.1%; inhibition [31]: 17.1%; inhibition [32]: -7.3%; inhibition [33]: -4.9%; inhibition [34]: 19%; inhibition [35]: 31.9%; IC50 [36]: 130000 nM; inhibition at 1.5 h, 10 µM [37]: -1.7%; solubility [38]: Soluble
OC[C@@H]1CCC[C@@H](c2ccc(O)cc2)CC1 (stereo in doubt) | 61 | 28 | > 10000 | > 23200 | 48 | > 10000 | 
OC[C@H]1CCC[C@H](c2ccc(O)cc2)CC1 (stereo in doubt) | 96 | 18 | > 35600 | > 35600 | 50 | > 3000 | 
CCC(=O)[C@@]1(C)CC[C@H]2[C@@H]3CCC4=CC(=O)CCC4=C3CC[C@@]21C [PROMEGESTONE] |  |  |  |  |  |  | IC50 [39]: 0.236 nM
